In ChEMBL document CHEMBL5390254, “Discovery and Optimization of Novel hDHODH Inhibitors for the Treatment of Inflammatory Bowel Disease” (J Med Chem, 2023):
Activity calls are given as the source filed them. No cut-off for these calls is given here.

Key:
Mus musculus [1] = experiment: Anti-inflammatory activity against DSS-induced acute ulcerative colitis in C57BL/6 mouse model assessed as decrease in IL-1beta protein level in colon at 20 to 80 mg/kg, po QD for 6 days by ELISA; type: functional, organism-based; settings: dose 20-80 mg/kg, time 6.0 day
[2] = Half life in Sprague-Dawley rat at 15 mg/kg, po and measured upto 48 hrs by LC-MS/MS analysis; type: ADME, organism-based; settings: in vivo
[3] = Cmax in Sprague-Dawley rat at 15 mg/kg, po and measured upto 48 hrs by LC-MS/MS analysis; type: ADME, organism-based; parameters: dose 15 mg/kg, time < 48 hrs, route po; settings: in vivo
[4] = Acute toxicity in po dosed BALB/c mouse assessed as maximum tolerate dose; type: organism-based; settings: in vivo
[5] = Acute toxicity in BALB/c mouse assessed as changes in ALP level in serum at 600 mg/kg,po and measured after 14 days by Biochemistry analysis; type: organism-based; settings: in vivo, 336 h, time 14 day
[6] = Acute toxicity in BALB/c mouse assessed as tissue damage in spleen at 600 mg/kg,po and measured after 14 days by hematoxylin and eosin staining based microscopy; type: organism-based; settings: in vivo, 336 h, time 14 day
[7] = Acute toxicity in BALB/c mouse assessed as changes in lymph level in blood at 600 mg/kg,po and measured after 14 days by hematology test; type: organism-based; settings: in vivo, 336 h, time 14 day
Mus musculus [8] = experiment: Anti-inflammatory activity against DSS-induced acute ulcerative colitis in C57BL/6 mouse model assessed as decrease in DAI score at 20 to 80 mg/kg, po QD for 6 days; type: functional, organism-based; settings: dose 20-80 mg/kg, time 6.0 day
Mus musculus [9] = experiment: Anti-inflammatory activity against DSS-induced acute ulcerative colitis in C57BL/6 mouse model assessed as decrease in IL-17 protein level in colon at 20 to 80 mg/kg, po QD for 6 days by ELISA; type: functional, organism-based; settings: dose 20-80 mg/kg, time 6.0 day
Mus musculus [10] = experiment: Anti-inflammatory activity against DSS-induced acute ulcerative colitis in C57BL/6 mouse model assessed as decrease in IL-17 mRNA expression level in colon at 40 mg/kg, po QD for 6 days by RT-PCR analysis; type: functional, organism-based; settings: time 6.0 day
[11] = Drug distribution in colon of DSS-induced acute ulcerative colitis in C57BL/6 mouse model at 40 mg/kg,po and measured after 2 hrs by LC-MS/MS analysis; type: ADME, organism-based; settings: in vivo
[12] = Acute toxicity in BALB/c mouse assessed as tissue damage in liver at 600 mg/kg,po and measured after 14 days by hematoxylin and eosin staining based microscopy; type: organism-based; settings: in vivo, 336 h, time 14 day
Mus musculus [13] = experiment: Anti-inflammatory activity against DSS-induced acute ulcerative colitis in C57BL/6 mouse model assessed as decrease in IL-17 mRNA expression level in colon at 20 to 80 mg/kg, po QD for 6 days by RT-qPCR analysis; type: functional, organism-based; settings: dose 20-80 mg/kg, time 6.0 day
[14] = Metabolic stability in human liver microsomes assessed as intrinsic clearance at 3 uM incubated upto 90 mins in presence of NADPH by LC-MS/MS analysis; type: ADME, Microsome; settings: read-out: CLH
[15] = Tmax in Sprague-Dawley rat at 15 mg/kg, po and measured upto 48 hrs by LC-MS/MS analysis; type: ADME, organism-based; settings: in vivo
[16] = Acute toxicity in BALB/c mouse assessed as changes in LDH level in serum at 600 mg/kg,po and measured after 14 days by Biochemistry analysis; type: organism-based; settings: in vivo, 336 h, time 14 day
[17] = Acute toxicity in BALB/c mouse assessed as changes in general health status at 600 mg/kg,po and measured for 14 days; type: organism-based; settings: in vivo, 336 h, time 14 day
Mus musculus [18] = experiment: Anti-inflammatory activity against DSS-induced acute ulcerative colitis in C57BL/6 mouse model assessed as decrease in DAI score at 40 mg/kg, po QD for 6 days; type: functional, organism-based; settings: time 6.0 day
[19] = Acute toxicity in BALB/c mouse assessed as changes in urea level in serum at 600 mg/kg,po and measured after 14 days by Biochemistry analysis; type: organism-based; settings: in vivo, 336 h, time 14 day
Mus musculus [20] = experiment: Anti-inflammatory activity against DSS-induced acute ulcerative colitis in C57BL/6 mouse model assessed as decrease in IL-1beta mRNA expression level in colon at 40 mg/kg, po QD for 6 days by RT-PCR analysis; type: functional, organism-based; settings: time 6.0 day
Mus musculus [21] = experiment: Anti-inflammatory activity against DSS-induced acute ulcerative colitis in C57BL/6 mouse model assessed as decrease in body weight loss at 20 mg/kg, po QD for 6 days (Rvb= -13.4%); type: functional; parameters: scale not given: the % may be the effect or the level left; settings: time 6 day
[22] = Metabolic stability in rat liver microsomes assessed as half life at 3 uM incubated upto 90 mins in presence of NADPH by LC-MS/MS analysis; type: ADME, Microsome
Mus musculus [23] = experiment: Anti-inflammatory activity against DSS-induced acute ulcerative colitis in C57BL/6 mouse model assessed as decrease in IL-6 mRNA expression level in colon at 20 to 80 mg/kg, po QD for 6 days by RT-qPCR analysis; type: functional, organism-based; settings: dose 20-80 mg/kg, time 6.0 day
Mus musculus [24] = experiment: Anti-inflammatory activity against DSS-induced acute ulcerative colitis in C57BL/6 mouse model assessed as recovery in colon damage at 20 to 80 mg/kg, po QD for 6 days by H and E staining based microscopy; type: functional, organism-based; settings: dose 20-80 mg/kg, time 6.0 day
[25] = Acute toxicity in BALB/c mouse assessed as death at 600 mg/kg,po and measured for 14 days; type: organism-based; settings: in vivo, 336 h, time 14 day
Mus musculus [26] = experiment: Anti-inflammatory activity against DSS-induced acute ulcerative colitis in C57BL/6 mouse model assessed as decrease in colon tissue damage score at 40 mg/kg, po QD for 6 days relative to DSS group; type: functional; parameters: scale not given: the % may be the effect or the level left; settings: time 6 day
[27] = Half life in Sprague-Dawley rat at 5 mg/kg, iv and measured upto 48 hrs by LC-MS/MS analysis; type: ADME, organism-based; settings: in vivo
Mus musculus [28] = experiment: Anti-inflammatory activity against DSS-induced acute ulcerative colitis in C57BL/6 mouse model assessed as decrease in IL-17 production in colon at 40 mg/kg, po QD for 6 days by ELISA; type: functional; parameters: scale not given: the % may be the effect or the level left; settings: time 6 day
Mus musculus [29] = experiment: Anti-inflammatory activity against DSS-induced acute ulcerative colitis in C57BL/6 mouse model assessed as increase in colon length at 80 mg/kg, po QD for 6 days (Rvb= 5.3cm); type: functional; settings: time 6 day
[30] = Metabolic stability in human liver microsomes assessed as half life at 3 uM incubated upto 90 mins in presence of NADPH by LC-MS/MS analysis; type: ADME, Microsome
Mus musculus [31] = experiment: Anti-inflammatory activity against DSS-induced acute ulcerative colitis in C57BL/6 mouse model assessed as decrease in IL-6 production in colon at 40 mg/kg, po QD for 6 days by ELISA; type: functional; parameters: scale not given: the % may be the effect or the level left; settings: time 6 day
Mus musculus [32] = experiment: Anti-inflammatory activity against DSS-induced acute ulcerative colitis in C57BL/6 mouse model assessed as decrease in body weight loss at 80 mg/kg, po QD for 6 days (Rvb= -13.4%); type: functional; parameters: scale not given: the % may be the effect or the level left; settings: time 6 day
Mus musculus [33] = experiment: Anti-inflammatory activity against DSS-induced acute ulcerative colitis in C57BL/6 mouse model assessed as decrease in body weight loss at 40 mg/kg, po QD for 6 days (Rvb= 25.6%); type: functional; parameters: scale not given: the % may be the effect or the level left; settings: time 6 day
[34] = Acute toxicity in BALB/c mouse assessed as changes in hemoglobin level in blood at 600 mg/kg,po and measured after 14 days by hematology test; type: organism-based; settings: in vivo, 336 h, time 14 day
[35] = Clearance in Sprague-Dawley rat at 15 mg/kg, po and measured upto 48 hrs by LC-MS/MS analysis; type: ADME, organism-based; settings: in vivo
[36] = Acute toxicity in BALB/c mouse assessed as changes in CREA level in serum at 600 mg/kg,po and measured after 14 days by Biochemistry analysis; type: organism-based; settings: in vivo, 336 h, time 14 day

## Nc1nc(-c2cn(Cc3c(F)cccc3Cl)c3ncccc23)ncc1C1CC1
Mus musculus [1]
  Activity: Dose-Dependent Effect
[2]
  half-life: 96 min
[3]
  Cmax: 2680 ng/mL
[4]
  MTD: 600 mg/kg
[5]
  Activity: Non-Toxic
[6]
  Activity: Non-Toxic
[7]
  Activity: Non-Toxic
Mus musculus [8]
  Activity: Dose-Dependent Effect
Mus musculus [9]
  Activity: Dose-Dependent Effect
Mus musculus [10]
  Activity: Active
[11]
  Drug uptake: Active
[12]
  Activity: Non-Toxic
Mus musculus [13]
  Activity: Dose-Dependent Effect
[14]
  CLint scaled at 3 µM: 91.8 mL/min/kg
[15]
  Tmax: 2 h
[16]
  Activity: Non-Toxic
[17]
  Activity: Non-Toxic
Mus musculus [18]
  Activity: Active
[19]
  Activity: Non-Toxic
Mus musculus [20]
  Activity: Active
Mus musculus [21]
  Activity: -5.1%
[22]
  half-life at 3 µM: 7.8 min
Mus musculus [23]
  Activity: Dose-Dependent Effect
Mus musculus [24]
  Activity: Dose-Dependent Effect
[25]
  Activity: Non-Toxic
Mus musculus [26]
  Activity: 54.55%
[27]
  half-life: 156 min
Mus musculus [28]
  Activity: 57.35%
Mus musculus [29]
  Activity: 7.5 cm
[30]
  half-life at 3 µM: 18.9 min
Mus musculus [31]
  Activity: 77.73%
Mus musculus [32]
  Activity: 1.4%
Mus musculus [33]
  Activity: 7.4%
[34]
  Activity: Non-Toxic
[35]
  CL/F: 21.7 mL/min/kg
[36]
  Activity: Non-Toxic
